The record followed here is patent US7307063B2, “Melanocortin metallopeptides for treatment of sexual dysfunction” (Palatin Technologies, Inc., priority 2001, dated 2007).

Non-standard residues stand in square brackets, D forms with d. *: point of attachment. Bip = N[C@@H](Cc1ccc(-c2ccccc2)cc1)C(=O)O; dBip = N[C@H](Cc1ccc(-c2ccccc2)cc1)C(=O)O; Heptanoyl = CCCCCCC(=O)*; Nle = CCCC[C@H](N)C(=O)O; Bn = c1ccc(C*)cc1

The target of one experiment is T1, MC1-R (Mus musculus, UniProt Q01727).
T1 construct: MC1-R membranes were isolated from B16—F10 mouse melanoma cells; endogenous in cells; host or cells: B16-F10 mouse melanoma cells
The experiment in a line: Competitive binding assay: inhibition of 125I-NDP-α-MSH binding to membranes from B16-F10 mouse melanoma cells. The settings on record: Table 6, mean of triplicate. The procedure:
(§1) Rhenium-complexed metallopeptides of the formulas given in Table 1 were prepared, with the metallopeptides complexed with rhenium using the rhenium transfer agent ReOCl3(PPh3)2 in the presence of 1,8-Diazabicyclo[5,4,0] undec-7-ene as a base, as disclosed in International Application PCT/US00/16396, filed Jun. 14, 2000, Melanocortin Metallopeptide Constructs, Combinatorial Libraries and Applications, incorporated by reference herein. Affinities of compounds were measured using membranes from HEK-293 cells containing cloned human melanocortin receptor subtypes 3, 4 and 5. MC1-R membranes were isolated from B16—F10 mouse melanoma cells. The assay tube also contained a chosen concentration of the test peptide of this invention, complexed to a rhenium metal ion as indicated, for determining its efficacy in inhibiting the binding of ^125I-NDP-α-MSH to its receptor. Non-specific binding was measured by complete inhibition of binding of ^125I-NDP-α-MSH in the assay with the presence of 1 μM α-MSH. 100% specific binding was defined as the difference in radioactivity (cpm) bound to cell membranes in the absence and presence of 1 μM α-MSH. The cpm obtained in presence of test compounds were normalized with respect to 100% specific binding to determine the percent inhibition of ^125I-NDP-α-MSH binding.
(§2) Peptide sequences set forth in Table 6 were prepared using conventional synthetic means. The resulting sequences were rhenium-complexed to form metallopeptides, with the metallopeptides complexed with rhenium using the rhenium transfer agent ReOCl3(PPh3)2 in the presence of 1,8-Diazabicyclo[5,4,0] undec-7-ene as a base. Percent inhibition was determined as in Example 1 using the Re-complexed metallopeptides, using the same methods as described therein. All measures are means of triplicate determinations.

The next experiment deals with T2, MC4-R (Homo sapiens, UniProt P32245).
T2 construct: expressed in transfected cells; host or cells: HEK-293
The experiment in a line: Competitive binding assay: inhibition of 125I-NDP-α-MSH binding to HEK-293 membranes with cloned human receptor subtype 4. The settings on record: Table 6, mean of triplicate. How it is done: as §1, §2

A further experiment concerns the target T3, hMC2-R (Homo sapiens, UniProt P41968).
T3 construct: expressed in transfected cells; host or cells: HEK-293
The experiment can be described thus: Competitive binding assay of additional compounds, Table 6 hMC2-R. The settings on record: 1 μM, mean of triplicate. How it is done: [The source words this procedure for another target and reports this target under the same test.] as §1, §2

The mark [1] stands for this setting: 1 μM, listed as 3′-Bromo phenyl acetyl-Arg-Arg-D-Phe(4′-Cl)-Cys-Nal 2′-NH2, 1 µM.
The mark [2] stands for this setting: 1 μM, listed as Hept-Ser(Bzl)-D-Nal 2′-Arg-Nal 2′-Cys-NH2, 1 µM.

T1 sequence (Q01727 whole entry): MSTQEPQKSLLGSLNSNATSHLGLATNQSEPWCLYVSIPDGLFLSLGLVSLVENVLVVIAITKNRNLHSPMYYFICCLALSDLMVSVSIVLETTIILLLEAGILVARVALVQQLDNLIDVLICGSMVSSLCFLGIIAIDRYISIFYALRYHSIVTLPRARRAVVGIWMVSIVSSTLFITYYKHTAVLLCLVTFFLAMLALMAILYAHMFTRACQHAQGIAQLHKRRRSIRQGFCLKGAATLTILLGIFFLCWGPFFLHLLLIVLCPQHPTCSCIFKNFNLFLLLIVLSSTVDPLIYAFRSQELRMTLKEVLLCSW
T3 sequence (P41968 whole entry): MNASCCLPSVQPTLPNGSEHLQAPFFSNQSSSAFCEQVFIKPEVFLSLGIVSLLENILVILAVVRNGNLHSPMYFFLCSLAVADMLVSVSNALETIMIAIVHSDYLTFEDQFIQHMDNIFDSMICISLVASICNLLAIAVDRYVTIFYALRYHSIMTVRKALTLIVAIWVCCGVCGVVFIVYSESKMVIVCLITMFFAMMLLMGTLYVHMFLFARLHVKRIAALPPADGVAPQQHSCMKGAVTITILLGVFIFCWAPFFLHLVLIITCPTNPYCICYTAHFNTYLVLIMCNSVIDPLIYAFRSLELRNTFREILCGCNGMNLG
T2 sequence (P32245 whole entry): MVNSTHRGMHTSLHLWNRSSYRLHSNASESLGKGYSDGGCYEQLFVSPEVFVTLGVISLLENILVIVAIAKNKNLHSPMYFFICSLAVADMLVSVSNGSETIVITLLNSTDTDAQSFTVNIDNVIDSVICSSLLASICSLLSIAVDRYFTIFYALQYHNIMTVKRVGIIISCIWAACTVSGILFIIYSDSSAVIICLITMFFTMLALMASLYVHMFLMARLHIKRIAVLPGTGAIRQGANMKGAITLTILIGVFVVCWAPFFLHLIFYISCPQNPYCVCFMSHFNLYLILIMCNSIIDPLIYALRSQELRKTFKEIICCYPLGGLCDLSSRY

As for “3′-Br Phenyl acetyl-Arg-Arg-D-Phe(4′-Cl)-Cys-Nal 2′-NH2”, the entries for the “% Inhibition of Binding MC1-R” value on MC1-R (1 μM) and at MC1-R (setting [1]) were 90% and 79%, respectively. Also, the “% Inhibition of Binding hMC4-R” value is 96% on MC4-R (1 μM) and 94% on MC4-R (setting [1]). The “% Inhibition of Binding hMC2-R” value at hMC2-R came to 95%; at hMC2-R (listed as 3′-Bromo phenyl acetyl-Arg-Arg-D-Phe(4′-Cl)-Cys-Nal 2′-NH2, 1 µM) it was 55%.

Consider Ac-[Nle]AH[dBip]RCW-NH2, for which the “% Inhibition of Binding MC1-R” value at MC1-R (1 μM) was 72%. Moreover, the “% Inhibition of Binding hMC2-R” value at hMC2-R amounted to 100%.

As to Ac-[Nle]AH[dBip]RC[Bip]-NH2, the “% Inhibition of Binding MC1-R” value at MC1-R (1 μM) is 77%. Moreover, the “% Inhibition of Binding hMC2-R” value at hMC2-R is given as 100%.

As to Ac-[Nle]AH[dBip]RWC-NH2, on MC1-R (1 μM), the “% Inhibition of Binding MC1-R” value was determined as 99%. At hMC2-R, the “% Inhibition of Binding hMC2-R” value worked out at 100%.

With Ac-[Nle]AH[dBip]R[Bip]C-NH2, the “% Inhibition of Binding MC1-R” value at MC1-R (1 μM) is listed as 95%. In addition, on hMC2-R, the “% Inhibition of Binding hMC2-R” value was 100%.

Take Ac-[Nle]AH[dF]RC[Bip]-NH2: the “% Inhibition of Binding MC1-R” value at MC1-R (1 μM) is recorded as 82%. In addition, the “% Inhibition of Binding hMC2-R” value at hMC2-R was 100%.

With Ac-[Nle]AH[dF]R[Bip]C-NH2, the “% Inhibition of Binding MC1-R” value on MC1-R (1 μM) was 35%. Further, on hMC2-R, the “% Inhibition of Binding hMC2-R” value was 100%.

Turning to Heptanoyl-S(Bn)[dBip]RWC-NH2, at MC1-R (1 μM), the “% Inhibition of Binding MC1-R” value is 84%. The “% Inhibition of Binding hMC2-R” value at hMC2-R stood at 0%.

On to Heptanoyl-S(Bn)[dBip]R[Bip]C-NH2, for which the “% Inhibition of Binding MC1-R” value at MC1-R (1 μM) is recorded as 30%. Further, the “% Inhibition of Binding hMC2-R” value on hMC2-R is 0%.

For “Heptanoyl-Ser(Bzl)-D-Nal 2′-Arg-Nal 2′-Cys-NH2”, the “% Inhibition of Binding MC1-R” value on MC1-R (1 μM) was found to be 28%; at MC1-R (setting [2]), 25%. The “% Inhibition of Binding hMC4-R” value is reported as 91% at MC4-R (1 μM) and 92% on MC4-R (setting [2]). Also, the “% Inhibition of Binding hMC2-R” value on hMC2-R was 41%; at hMC2-R (listed as Hept-Ser(Bzl)-D-Nal 2′-Arg-Nal 2′-Cys-NH2, 1 µM), 62%.

As for “Heptanoyl-Ser(Bzl)-D-Phe(4′-Br)-Arg-Trp-Cys-NH2”, on MC1-R (0.1 μM), the “% Inhibition of Binding MC1-R” value came out at 21%. For the same substance, the “% Inhibition of Binding hMC4-R” value on MC4-R (0.1 μM) is 90%.

For “Heptanoyl-Ser(Bzl)-D-Phe(4′-Cl)-Arg-Asp(OcHx)-Cys-NH2”, the “% Inhibition of Binding MC1-R” value on MC1-R (0.1 μM) amounted to 15%. Besides, the “% Inhibition of Binding hMC4-R” value at MC4-R (0.1 μM) amounted to 25%.

Turning to “Heptanoyl-Ser(Bzl)-D-Phe(4′-Cl)-Arg-Bip-Cys-NH2”, the “% Inhibition of Binding MC1-R” value on MC1-R (1 μM) stood at 65%. The “% Inhibition of Binding hMC2-R” value on hMC2-R came out at 5%.

Turning to “Heptanoyl-Ser(Bzl)-D-Phe(4′-Cl)-Arg-Cys(Bzl)-Cys-NH2”, the “% Inhibition of Binding MC1-R” value at MC1-R (1 μM) is 30%. Besides, the “% Inhibition of Binding hMC4-R” value on MC4-R (1 μM) is 72%.

For the substance “Heptanoyl-Ser(Bzl)-D-Phe(4′-Cl)-Arg-Hphe-Cys-NH2”, the “% Inhibition of Binding MC1-R” value on MC1-R (1 μM) was 38%. Moreover, on MC4-R (1 μM), the “% Inhibition of Binding hMC4-R” value is given as 43%.

Turning to “Heptanoyl-Ser(Bzl)-D-Phe(4′-Cl)-Arg-Nal 1′-Cys-NH2”, on MC1-R (0.1 μM), the “% Inhibition of Binding MC1-R” value turned out to be 3%. For the same substance, the “% Inhibition of Binding hMC4-R” value on MC4-R (0.1 μM) was found to be 47%.

On to “Heptanoyl-Ser(Bzl)-D-Phe(4′-Cl)-Arg-Nal 2′-Cys-Lys-NH2”, for which the “% Inhibition of Binding MC1-R” value at MC1-R (0.1 μM) is given as 78%. For the same substance, the “% Inhibition of Binding hMC4-R” value at MC4-R (0.1 μM) is 97%.

Turning to “Heptanoyl-Ser(Bzl)-D-Phe(4′-Cl)-Arg-Nal 2′-Cys-NH2”, the “% Inhibition of Binding MC1-R” value at MC1-R (0.1 μM) stood at 16%. On MC4-R (0.1 μM), the “% Inhibition of Binding hMC4-R” value amounted to 94%.

Turning to “Heptanoyl-Ser(Bzl)-D-Phe(4′-Cl)-Arg-Phe(2′-Cl)-Cys-NH2”, the “% Inhibition of Binding MC1-R” value at MC1-R (0.1 μM) was 9%. Also, on MC4-R (0.1 μM), the “% Inhibition of Binding hMC4-R” value is given as 28%.

“Heptanoyl-Ser(Bzl)-D-Phe(4′-Cl)-Arg-Phe(2′-F)-Cys-NH2”: the “% Inhibition of Binding MC1-R” value at MC1-R (0.1 μM) was found to be 14%. In addition, the “% Inhibition of Binding hMC4-R” value on MC4-R (0.1 μM) is reported as 46%.

Turning to “Heptanoyl-Ser(Bzl)-D-Phe(4′-Cl)-Arg-Phe(3′-Cl)-Cys-NH2”, the “% Inhibition of Binding MC1-R” value on MC1-R (0.1 μM) came out at 27%. Further, the “% Inhibition of Binding hMC4-R” value on MC4-R (0.1 μM) came out at 67%.

As for “Heptanoyl-Ser(Bzl)-D-Phe(4′-Cl)-Arg-Phe(3′-F)-Cys-NH2”, at MC1-R (0.1 μM), the “% Inhibition of Binding MC1-R” value was found to be 19%. For the same substance, on MC4-R (0.1 μM), the “% Inhibition of Binding hMC4-R” value was found to be 43%.

Regarding “Heptanoyl-Ser(Bzl)-D-Phe(4′-Cl)-Arg-Phe-Cys-NH2”, the “% Inhibition of Binding MC1-R” value at MC1-R (0.1 μM) is reported as 11%. In addition, the “% Inhibition of Binding hMC4-R” value at MC4-R (0.1 μM) stood at 32%.
